5 compounds from PubChem BioAssay AID1259407 (Chemical Carcinogenesis Research Information System (CCRIS), 2018) can be followed below.

The structures appear in SMILES notation. Activity calls are given as the source filed them. No rule for the calls is given here.

The subject of this data set is CCRIS mutagenicity, Ames/micronucleus/aberration tests. As to the kind of experiment: CCRIS mutagenicity studies.
[1] abbreviates: Test System: AMES SALMONELLA TYPHIMURIUM, Strain/Indicator: TA98, Metabolic Activation: NONE, Method: PREINCUBATION
The mark [2] stands for this setting: Test System: AMES SALMONELLA TYPHIMURIUM, Strain/Indicator: TA98, Metabolic Activation: NONE, Method: STANDARD PLATE.
[3] abbreviates: Test System: AMES SALMONELLA TYPHIMURIUM, Strain/Indicator: TA100, Metabolic Activation: NONE, Method: STANDARD PLATE.

`CC(=O)OCCC(C)C`: the mutagenic call runs as follows: (Test System: AMES SALMONELLA TYPHIMURIUM, Strain/Indicator: TA97, Metabolic Activation: HAMSTER, LIVER, S-9, AROCLOR 1254 (10%), Method: PREINCUBATION) “inactive; negative”; (Test System: AMES SALMONELLA TYPHIMURIUM, Strain/Indicator: TA97, Metabolic Activation: HAMSTER, LIVER, S-9, AROCLOR 1254 (30%), Method: PREINCUBATION) “inactive; negative”; (Test System: AMES SALMONELLA TYPHIMURIUM, Strain/Indicator: TA97, Metabolic Activation: NONE, Method: PREINCUBATION) “inactive; negative”; (Test System: AMES SALMONELLA TYPHIMURIUM, Strain/Indicator: TA97, Metabolic Activation: RAT, LIVER, S-9, AROCLOR 1254 (10%), Method: PREINCUBATION) “inactive; negative”; (Test System: AMES SALMONELLA TYPHIMURIUM, Strain/Indicator: TA97, Metabolic Activation: RAT, LIVER, S-9, AROCLOR 1254 (30%), Method: PREINCUBATION) “inactive; negative”; (Test System: AMES SALMONELLA TYPHIMURIUM, Strain/Indicator: TA98, Metabolic Activation: HAMSTER, LIVER, S-9, AROCLOR 1254 (10%), Method: PREINCUBATION) “inactive; negative”. In addition, the mutagenic call is, setting by setting: (Test System: AMES SALMONELLA TYPHIMURIUM, Strain/Indicator: TA98, Metabolic Activation: HAMSTER, LIVER, S-9, AROCLOR 1254 (30%), Method: PREINCUBATION) “inactive; negative”; under setting [1], “inactive; negative”; (Test System: AMES SALMONELLA TYPHIMURIUM, Strain/Indicator: TA98, Metabolic Activation: RAT, LIVER, S-9, AROCLOR 1254 (10%), Method: PREINCUBATION) “inactive; negative”; (Test System: AMES SALMONELLA TYPHIMURIUM, Strain/Indicator: TA98, Metabolic Activation: RAT, LIVER, S-9, AROCLOR 1254 (30%), Method: PREINCUBATION) “inactive; negative”; (Test System: AMES SALMONELLA TYPHIMURIUM, Strain/Indicator: TA100, Metabolic Activation: HAMSTER, LIVER, S-9, AROCLOR 1254 (10%), Method: PREINCUBATION) “inactive; negative”; (Test System: AMES SALMONELLA TYPHIMURIUM, Strain/Indicator: TA100, Metabolic Activation: HAMSTER, LIVER, S-9, AROCLOR 1254 (30%), Method: PREINCUBATION) “inactive; negative”. In addition, the mutagenic call is “inactive; negative” (Test System: AMES SALMONELLA TYPHIMURIUM, Strain/Indicator: TA100, Metabolic Activation: NONE, Method: PREINCUBATION); “inactive; negative” (Test System: AMES SALMONELLA TYPHIMURIUM, Strain/Indicator: TA100, Metabolic Activation: RAT, LIVER, S-9, AROCLOR 1254 (10 OR 30%), Method: PREINCUBATION); “inactive; negative” (Test System: AMES SALMONELLA TYPHIMURIUM, Strain/Indicator: TA1535, Metabolic Activation: HAMSTER, LIVER, S-9, AROCLOR 1254 (10%), Method: PREINCUBATION); “inactive; negative” (Test System: AMES SALMONELLA TYPHIMURIUM, Strain/Indicator: TA1535, Metabolic Activation: HAMSTER, LIVER, S-9, AROCLOR 1254 (30%), Method: PREINCUBATION); “inactive; negative” (Test System: AMES SALMONELLA TYPHIMURIUM, Strain/Indicator: TA1535, Metabolic Activation: NONE, Method: PREINCUBATION); “inactive; negative” (Test System: AMES SALMONELLA TYPHIMURIUM, Strain/Indicator: TA1535, Metabolic Activation: RAT, LIVER, S-9, AROCLOR 1254 (10%), Method: PREINCUBATION). The mutagenic call is “inactive; negative” (Test System: AMES SALMONELLA TYPHIMURIUM, Strain/Indicator: TA1535, Metabolic Activation: RAT, LIVER, S-9, AROCLOR 1254 (30%), Method: PREINCUBATION); “inactive; negative” (Test System: AMES SALMONELLA TYPHIMURIUM, Strain/Indicator: TA1537, Metabolic Activation: HAMSTER, LIVER, S-9, AROCLOR 1254 (30%), Method: PREINCUBATION); “inactive; negative” (Test System: AMES SALMONELLA TYPHIMURIUM, Strain/Indicator: TA1537, Metabolic Activation: NONE, Method: PREINCUBATION); “inactive; negative” (Test System: AMES SALMONELLA TYPHIMURIUM, Strain/Indicator: TA1537, Metabolic Activation: RAT, LIVER, S-9, AROCLOR 1254 (30%), Method: PREINCUBATION).

Take `C[C@H](CCC(=O)O)[C@H]1CC[C@H]2[C@@H]3C(=O)C[C@@H]4C[C@H](O)CC[C@]4(C)[C@H]3CC[C@]12C`: the mutagenic call (Test System: AMES SALMONELLA TYPHIMURIUM, Strain/Indicator: TA98, Metabolic Activation: NONE, Method: FLUCTUATION TEST) is “inactive; negative”; the mutagenic call under setting [1] was “inactive; negative”; the mutagenic call (Test System: AMES SALMONELLA TYPHIMURIUM, Strain/Indicator: TA98, Metabolic Activation: RAT, LIVER, S-9, PCB, Method: PREINCUBATION) was “inactive; negative”; the mutagenic call (Test System: AMES SALMONELLA TYPHIMURIUM, Strain/Indicator: TA100, Metabolic Activation: NONE, Method: FLUCTUATION TEST) is “inactive; negative”.

Regarding `CC1(C)CCCC(C)(C)N1[O]`, the mutagenic call reads like this: under setting [2], “inactive; negative”; under setting [3], “inactive; negative”; (Test System: AMES SALMONELLA TYPHIMURIUM, Strain/Indicator: TA102, Metabolic Activation: NONE, Method: STANDARD PLATE) “inactive; negative”.

With `Oc1cc(Cl)cc(Cl)c1O`, the mutagenic call (Test System: CHINESE HAMSTER V-79, Strain/Indicator: V-79/6-THIOGUANINE, Metabolic Activation: CELL MEDIATED, Method: STANDARD PLATE) is “inactive; negative” and the mutagenic call (Test System: CHINESE HAMSTER V-79, Strain/Indicator: V-79/6-THIOGUANINE, Metabolic Activation: NONE, Method: STANDARD PLATE) is “inactive; negative”.

On to `Nc1ccc2c(c1)Cc1cc(N)ccc1-2`, for which the mutagenic call reads like this: under setting [2], “active; positive”; (Test System: AMES SALMONELLA TYPHIMURIUM, Strain/Indicator: TA98, Metabolic Activation: RAT, LIVER, S-9, AROCLOR 1254, Method: STANDARD PLATE) “active; positive”; under setting [3], “inactive; negative”; (Test System: AMES SALMONELLA TYPHIMURIUM, Strain/Indicator: TA100, Metabolic Activation: RAT, LIVER, S-9, AROCLOR 1254, Method: STANDARD PLATE) “active; positive”; (Test System: AMES SALMONELLA TYPHIMURIUM, Strain/Indicator: TA1538, Metabolic Activation: NONE, Method: STANDARD PLATE) “active; positive”; (Test System: AMES SALMONELLA TYPHIMURIUM, Strain/Indicator: TA1538, Metabolic Activation: RAT, LIVER, S-9, AROCLOR 1254, Method: STANDARD PLATE) “active; positive”.
